From ChEMBL document CHEMBL1150518, “Balanced angiotensin II receptor antagonists. III. The effects of substitution at the imidazole 5-position” (Bioorg Med Chem Lett, 1994)

Experiments:
[1] = tested on: Rattus norvegicus; assay: Antihypertensive activity of compound was measured in renal hypertensive rat after iv administration; type: functional
[2] = molecular target: T1, Type-1 angiotensin II receptor (Homo sapiens, UniProt P30556); assay: Binding affinity for Angiotensin II receptor, type 1
T1 sequence (P30556 whole entry): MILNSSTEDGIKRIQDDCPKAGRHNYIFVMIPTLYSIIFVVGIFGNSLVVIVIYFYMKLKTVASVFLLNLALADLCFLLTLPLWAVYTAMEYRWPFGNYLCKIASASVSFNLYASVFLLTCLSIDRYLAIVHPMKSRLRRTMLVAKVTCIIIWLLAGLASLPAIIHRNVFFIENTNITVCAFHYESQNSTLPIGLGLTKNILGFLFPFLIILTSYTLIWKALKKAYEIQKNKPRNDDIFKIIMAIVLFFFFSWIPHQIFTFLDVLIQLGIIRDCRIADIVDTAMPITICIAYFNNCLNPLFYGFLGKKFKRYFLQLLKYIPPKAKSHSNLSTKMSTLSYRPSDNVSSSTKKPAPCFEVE

[3] = molecular target: T2, Type-2 angiotensin II receptor (Homo sapiens, UniProt P50052); assay: Binding affinity for angiotensin II AT-2 receptor
T2 sequence (P50052 whole entry): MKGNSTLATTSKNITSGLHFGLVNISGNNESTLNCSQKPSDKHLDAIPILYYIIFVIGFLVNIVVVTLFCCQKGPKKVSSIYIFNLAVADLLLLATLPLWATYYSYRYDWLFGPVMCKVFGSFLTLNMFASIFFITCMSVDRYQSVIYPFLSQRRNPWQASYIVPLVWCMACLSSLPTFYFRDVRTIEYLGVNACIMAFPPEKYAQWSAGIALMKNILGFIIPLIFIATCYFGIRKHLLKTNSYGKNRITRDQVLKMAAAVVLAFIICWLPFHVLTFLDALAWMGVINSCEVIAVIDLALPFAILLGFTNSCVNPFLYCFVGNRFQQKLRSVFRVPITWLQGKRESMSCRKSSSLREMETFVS

[4] = tested on: Rattus norvegicus; assay: Antihypertensive activity of compound was measured in renal hypertensive rat after oral administration; type: functional

Row | SMILES | IC50 [2] [nM] | IC50 [3] [nM] | ED30 [1] [mg/kg] | ED30 [4] [mg/kg]
1 | CCCc1nc(CC)c(C(=O)O)n1Cc1ccc(-c2ccccc2-c2nnn[nH]2)cc1 | 6 | > 1000 | 0.005 | 0.03
2 | CCCc1nc(CC)c(C(=O)OCc2ccccc2Sc2ccccc2)n1Cc1ccc(-c2ccccc2S(=O)(=O)NC(=O)OCCC(C)C)cc1F | 1 | 2 | – | –
3 | CCCc1nc(CC)c(C(=O)OCc2ccccc2S(=O)(=O)c2ccccc2)n1Cc1ccc(-c2ccccc2S(=O)(=O)NC(=O)OCCC(C)C)cc1F | 0.4 | 5 | – | –
4 | CCCc1nc(CC)c(C(=O)OCCCC(=O)c2ccccc2)n1Cc1ccc(-c2ccccc2S(=O)(=O)NC(=O)OCCC(C)C)cc1F | 0.1 | 5 | – | –
5 | CCCc1nc(CC)c(C(=O)OCCCOCc2ccccc2)n1Cc1ccc(-c2ccccc2S(=O)(=O)NC(=O)OCCC(C)C)cc1F | 0.1 | 2 | – | –
6 | CCCc1nc(CC)c(C(=O)OCCCSc2ccccc2)n1Cc1ccc(-c2ccccc2S(=O)(=O)NC(=O)OCCC(C)C)cc1F | 0.2 | 2 | – | –

More lines, main results first:

Row | IC50 [2] [nM] | IC50 [3] [nM] | SMILES | ED30 [1] [mg/kg] | ED30 [4] [mg/kg]
7 | 0.28 | 1.6 | CCCOC(=O)NS(=O)(=O)c1ccccc1-c1ccc(Cn2c(CCC)nc(CC)c2C(=O)OCc2ccccc2C(=O)c2ccccc2)c(F)c1 | 0.08 | 0.7
8 | 0.2 | 0.9 | CCCCOC(=O)NS(=O)(=O)c1ccccc1-c1ccc(Cn2c(CCC)nc(CC)c2C(=O)OCc2ccccc2C(=O)c2ccccc2)c(F)c1 | – | –
9 | 0.5 | 0.7 | CCCc1nc(CC)c(C(=O)OCc2ccccc2C(=O)c2ccccc2)n1Cc1ccc(-c2ccccc2S(=O)(=O)NC(=O)OCCC(C)C)cc1F | 0.05 | 0.9
